Results published in patent publication US7838695B2, “Neuroactive substance and uses of one such substance” (Universite de Nantes, priority 2003, dated 2010).
Entries after “also recorded” stand apart in the source; their conditions may differ.

Key:
[1] = test system: Phormia terrae novae larvae; experiment: Neuroactivity test by injection in Diptera larvae; format: in vivo
Procedure: The neuroactivity of the substance according to formula (I) was then tested by injecting in Diptera larvae. Within this scope, the inventors used Phormia terrae novae species Cyloraphe larvae at larval stage III, just before the imago stage enabling metamorphosis to a pupa or nymph. […] The product is injected using a precision micro-syringe fitted with a bevelled hypodermic needle. The needle is inserted into the last abdominal segment of the animal on the dorsal side. The injection is deemed successful if the larva is still mobile at the tip of the needle. In this type of test, contraction or relaxation for at least 5 seconds is defined as a positive response, but the intensity and duration are dose-dependent while the absence of any symptom for 10 min represents a negative response. Substance (II) was tested by injecting a single 350 μg dose of product per larva (mean larva weight 70 mg), by injecting 7 A1 of a 50 mg/ml solution of the product in the 85-15 v/v water:DMSO mixture. This concentration was then diluted by half until no larval activity was detected.

[2] = test system: axonal cockroach sodium and potassium channels; experiment: Isolated giant axon under imposed potential and imposed current; format: cell-based, Periplaneta americana
Procedure: Firstly, the neuronal sodium and potassium channels were studied. These channels are involved in action potential generation. This study was conducted on cockroach (Periplaneta americana) giant axons. The giant axon of these cockroaches was isolated in ventral abdominal nerve chain connective tissue. During the experiment, the axon is immersed in physiological fluid. The experiment is performed under imposed potential and imposed current in the absence and presence of the substance according to formula (II).

[3] = test system: cockroach DUM neurons; experiment: Spontaneous pacemaker electrical activity of DUM neurons (whole cell patch-clamp); format: cell-based, Periplaneta americana
Procedure: (§1) A second experiment was conducted on dorsal unpaired median neurons (DUM neurons) from the central nervous system of cockroaches (Periplaneta americana). In particular, these neurons secrete a biogenous amine, octopamine, a neuromediator wherein the chemical structure is similar to […] in vertebrates. They represent a good study model as they display electrophysiological properties similar to those of dopaminergic neurons in vertebrates. These DUM neurons are isolated from the medio-dorsal line of the last terminal abdominal ganglion of the nerve chain of adult male cockroaches, by means of enzyme digestion and mechanical dissociation, according to the technique described by […] et al (J. Exp. Biol., 1989, 144; 535-549). The neurons isolated in this way are kept in culture at 29° C. for 24 hrs before testing. The whole cell configuration patch-clamp technique is used to measure the electrical activity and the calcium currents (imposed potential and/or current conditions) according to the model described by Grolleau and […]. Neurophysiol. 1995, 73; 160-171).

[4] = test system: cockroach DUM neurons; experiment: Electrical activity of DUM neurons activated by injecting depolarising current; format: cell-based, Periplaneta americana
Procedure: as §1, with “160-171). Experiments were also conducted on an electrical activity activated by injecting a level of depolarising current controlled in amplitude and duration (FIG. 6). The results obtained under these conditions are in agreement with the experiments conducted on spontaneous activity. […]” for “160-171).”

[5] = test system: high voltage activated calcium channels (HVA); experiment: HVA calcium current in DUM neurons (patch-clamp); format: cell-based, Periplaneta americana
[6] = test system: low voltage activated calcium channels (LVA); experiment: Overall LVA calcium current in DUM neurons (patch-clamp); format: cell-based, Periplaneta americana; details: +50 mV depolarising pulse from −100 mV reference potential
[7] = test system: maintained LVA calcium channels (mLVA); experiment: mLVA calcium current in DUM neurons in the presence of nickel chloride (patch-clamp); format: cell-based, Periplaneta americana; details: in the presence of 100 μm nickel chloride
[8] = test system: transient LVA calcium channels (tLVA); experiment: tLVA calcium current in DUM neurons (overall LVA minus mLVA); format: cell-based, Periplaneta americana

`CC(=O)O[C@@H]1CC[C@@]23O[C@@H]2[C@H](O)C[C@@H](C)[C@]3(C)[C@@H]1C(C)=O` [substance according to formula (II), 6S-acetyl-4R,5R-dimethyl-1R(10S)-epoxy-2R-hydroxy-7R-acetoxydecahydronaphthalene] was tested, and the MAC ([1]; calculated with molecular weight 296 g per mole) was “approximately 1 mM/mg of larvae”, the “minimum active concentration on diptera larvae” value ([1]; injection into larvae, halving dilutions until no larval activity) was 3.1 μg per μl and per 10 mg of larvae and the “activity on axonal sodium and potassium channels (change on the action potential)” value [2] was “no activity”. The action potential amplitude ([3]; 4-AP 2 mM) was “remains unchanged”, the post-hyperpolarisation phase ([3]; 4-AP 2 mM) was “increased” and the pre-depolarisation slope ([3]; 4-AP 2 mM) was “higher”. For the same compound, the “action potential frequency increased by a factor” value ([3]; 100 μm substance, in the presence of 4-AP 2 mM) was 2.1, the “action potential amplitude or duration” value [4] was “No change” and the discharge frequency [4] was “increase in the discharge frequency”. For the same compound, the “reduction of HVA calcium current amplitude” value ([5]; +90 mV depolarising pulse from −100 mV reference potential, n=7) was 9%, the “amplitude of the HVA current” value ([5]; in the presence of 100 μm nickel chloride) was “neither the amplitude of the mLVA current (FIGS. 10 and 11) or that of HVA are modified” and the “maintained component measured at the end of the depolarising pulse” value [6] was “not affected”. For the same compound, the “increase of amplitude of the overall LVA calcium current” value ([6]; n=7) was 81%, the “amplitude of the mLVA current” value [7] was “neither the amplitude of the mLVA current (FIGS. 10 and 11) or that of HVA are modified” and the “action on tLVA calcium channel” value [8] was “specific activator; also recorded: specific action; also recorded: potentiating”.
